Laboratory results from patent publication US20220054493A1, “INHIBITORS OF NGAL PROTEIN” (INSERM (INSTITUT NATIONAL DE LA SANTÉ ET DE LA RECHERCHE …, priority 2019, published 2022).

Assays:
[1] = Aqueous solubility; type: physicochemical
Method: (§1) Two specific toxicity assays have been performed to assess hepatoxicity and cardiotoxicity. Hepatotoxicity was evaluated in isolated hepatocytes from swiss mice and determined by the MTT colorimetric assay. Cardiotoxicity was evaluated using the commercially available Predictor hERG fluorescence polarization kit (Thermo Fisher Scientific). Several ADME assays have been carried out on the compounds generated throughout the project. The following experiments were undertaken: Stability in human microsomes, binding to human plasma protein, and CYP3A4 inhibition assay (Vivid CYP3A4 assay, Thermo Fisher Scientific). Physico-chemical properties were also assessed such as aqueous solubility and chemical stability.

[2] = target: T1, hERG channel (Homo sapiens, UniProt Q12809); assay: Cardiotoxicity, Predictor hERG fluorescence polarization kit; type: binding
T1 construct: purchased Thermo Fisher Scientific
Method: as §1

[3] = tested on: Salt-sensitive hypertension; assay: Salt-sensitive hypertension (L-NAME plus High Salt Diet); type: in vivo, mice; conditions: GP1 100 mg/kg/day in food, 10 days; FIG. 17
Method: Systolic BP was measured by tail-cuff plethysmography in trained conscious mice at weeks 8-10 using a BP2000 Visitech model. BP was measured every day in the same room at the same hour for 5 consecutive days. The BP measurements (expressed as mmHg) presented are the averages of the last 3 days Salt-sensitive hypertension was induced by co-administration of L-NAME 70 mg/l in drinking water together with 8% NaCl in chow food (High Salt Diet, HSD) for 10 days. GP1 (100 mg/kg/day) was added or not into the food. Control experiments included vehicle (control), L-NAME or high salt (HSD) alone. Systolic blood pressure (expressed as mmHg) was estimated in the last 3 days of treatment.

[4] = target: T2, recombinant murine NGAL (Mus musculus, UniProt P11672); assay: NGAL-induced profibrotic and proinflammatory gene expression in renal fibroblasts; type: cell-based; conditions: renal fibroblast cells stimulated with recombinant murine NGAL
T2 construct: purchased R&D Systems
T2 sequence (P11672 21-200): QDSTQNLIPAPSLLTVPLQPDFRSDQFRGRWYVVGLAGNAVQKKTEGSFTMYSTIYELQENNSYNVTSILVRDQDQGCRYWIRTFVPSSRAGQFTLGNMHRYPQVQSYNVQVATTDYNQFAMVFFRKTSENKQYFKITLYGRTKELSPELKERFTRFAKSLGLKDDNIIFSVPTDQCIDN
Method: Cell Culture Human cardiac fibroblasts (primary culture) were obtained from Promocell and maintained in medium (Fibroblast Media 3). Cells were cultured according to the manufacturer's instructions and used between passages 5 and 7. Cells were stimulated with aldosterone (10^-8 M, Sigma) or recombinant hNGAL (500 ng/mL, R&D Systems) for 24 h for protein analysis. Mouse kidney fibroblasts (MKF), were isolated from Wild Type (WT) mice. Briefly, mice 7 to 8 weeks were sacrificed by cervical dislocation and kidneys were cleaned and rinsed in cold DPBS (Dulbecco's Phosphate-Buffered Saline). The renal cortex was minced and incubated in Dulbecco's modified eagle medium/Nutrient mixture F-12 (DMEM/F12, Sigma) containing 1 mg/mL collagenase A (Roche) during 25 minutes at 37° C. The digestion was inactivated by adding culture medium (DMEM/F12+10% FBS) then the cell suspension was passed through a 100-μm cell strainer. After centrifugation, the pellet (containing MKF) was diluted with culture medium then plated in 75 cm^2 culture flask. […]
Frozen tissues (kidneys, heart) were homogenized in TRIzol (Life Technologies, 15596018) using FastPrep beads (MP-Bio, 6913-100). cDNAs were generated using the Superscript II reverse transcriptase kit (Invitrogen, 18064022), and qPCR was performed as previously described. Briefly, transcript levels were analysed in a CFX396 apparatus (Biorad). […]

[5] = tested on: CKD Mouse Model; assay: Renal fibrosis in the CKD mouse model (sirius red staining); type: in vivo, mice; conditions: two months administration; FIG. 14 A-B
Method: Chronic kidney disease (CKD) was induced by subtotal nephrectomy (Nx) in eight-weeks-old FVB male mice (25-26 g). All surgeries were performed under ketamine/xylazine anaesthesia. Briefly, the left kidney was exposed, and the upper and lower poles were tied with a poly-glycolic acid suture line. The peritoneum and skin were then sutured, and the animals were returned to their individual cages. After one week of recovery, the second kidney was removed. Removal of the second kidney represents TO. Sham mice were subjected to the same surgical procedures but neither renal poles nor the right kidney were removed. Mice were monitored for any sign of distress, and those observed to be experiencing severe, unrelievable pain were euthanized. Renal failure was assessed by the measure of plasma creatinine and urea with an automatic analyser (Konelab 20i; Thermo Fisher Scientific, Vernon Hills, Ill.) at weeks 4 and 10 post-Nx.

[6] = target: T3, CYP3A4 (Homo sapiens, UniProt P08684); assay: CYP3A4 inhibition assay (Vivid CYP3A4 assay); type: in vitro ADME
T3 construct: purchased Thermo Fisher Scientific
Method: as §1

T1 sequence (Q12809 whole entry): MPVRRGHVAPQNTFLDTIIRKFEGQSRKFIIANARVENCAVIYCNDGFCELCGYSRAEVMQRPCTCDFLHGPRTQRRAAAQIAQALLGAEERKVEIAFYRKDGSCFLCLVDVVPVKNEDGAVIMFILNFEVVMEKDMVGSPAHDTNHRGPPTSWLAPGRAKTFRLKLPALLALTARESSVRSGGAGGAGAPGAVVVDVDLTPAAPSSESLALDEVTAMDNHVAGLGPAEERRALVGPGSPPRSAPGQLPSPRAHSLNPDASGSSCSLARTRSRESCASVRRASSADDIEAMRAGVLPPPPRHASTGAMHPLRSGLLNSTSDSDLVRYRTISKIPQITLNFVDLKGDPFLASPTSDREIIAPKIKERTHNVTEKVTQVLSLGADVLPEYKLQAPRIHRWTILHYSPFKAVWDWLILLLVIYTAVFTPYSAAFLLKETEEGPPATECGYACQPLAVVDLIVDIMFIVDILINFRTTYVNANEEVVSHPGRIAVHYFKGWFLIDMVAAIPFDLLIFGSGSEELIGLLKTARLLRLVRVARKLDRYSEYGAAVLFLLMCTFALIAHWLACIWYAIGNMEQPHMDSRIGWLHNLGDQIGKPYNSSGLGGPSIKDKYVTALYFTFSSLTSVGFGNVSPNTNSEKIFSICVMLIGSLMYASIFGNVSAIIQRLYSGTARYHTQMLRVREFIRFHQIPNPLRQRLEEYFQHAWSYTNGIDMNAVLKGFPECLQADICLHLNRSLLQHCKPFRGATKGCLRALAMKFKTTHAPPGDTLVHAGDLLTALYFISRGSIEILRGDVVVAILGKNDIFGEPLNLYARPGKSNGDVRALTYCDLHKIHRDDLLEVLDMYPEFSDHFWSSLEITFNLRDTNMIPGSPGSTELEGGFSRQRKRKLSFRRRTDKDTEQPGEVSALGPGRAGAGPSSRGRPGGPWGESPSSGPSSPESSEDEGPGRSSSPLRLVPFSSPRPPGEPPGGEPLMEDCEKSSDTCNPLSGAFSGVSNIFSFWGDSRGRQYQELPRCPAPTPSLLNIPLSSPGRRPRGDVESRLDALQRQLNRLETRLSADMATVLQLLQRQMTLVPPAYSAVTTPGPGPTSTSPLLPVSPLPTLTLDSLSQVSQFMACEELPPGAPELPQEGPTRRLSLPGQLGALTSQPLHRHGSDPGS
T3 sequence (P08684 whole entry): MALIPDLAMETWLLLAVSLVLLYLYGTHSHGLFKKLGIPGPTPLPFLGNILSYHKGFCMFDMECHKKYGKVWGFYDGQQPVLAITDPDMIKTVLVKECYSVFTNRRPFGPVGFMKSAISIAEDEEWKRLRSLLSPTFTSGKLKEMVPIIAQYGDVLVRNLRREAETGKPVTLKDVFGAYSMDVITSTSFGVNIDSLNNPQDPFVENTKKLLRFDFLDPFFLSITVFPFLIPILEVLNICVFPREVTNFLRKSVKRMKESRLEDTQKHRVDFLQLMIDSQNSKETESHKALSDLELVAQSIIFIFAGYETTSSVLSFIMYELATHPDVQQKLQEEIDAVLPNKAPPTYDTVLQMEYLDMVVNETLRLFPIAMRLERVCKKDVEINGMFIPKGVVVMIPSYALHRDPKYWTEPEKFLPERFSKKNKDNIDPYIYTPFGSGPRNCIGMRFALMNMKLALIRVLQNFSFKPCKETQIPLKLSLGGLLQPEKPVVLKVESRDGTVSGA

- Aquous solubility [1]: 100%
- solubility in aqueous buffers (solubility test) [1]: perfectly soluble
- NGAL-induction of inflammatory (IL6, MCP1) gene expression ([4]; FIG. 16): inhibited
- NGAL-induction of profibrotic (Collagen1, fibronectin, aSMA) gene expression ([4]; FIG. 16A): inhibited
- processing by CYP3A4 [6]: partially processed
- Activity ([6]; human, recombinant CYP3A4 (Vivid CYP3A4 assay kit), 100 = no inhibition, read-out: CyP 3A4 Inhibition % (100 = no inhibition)): 72.2 ± 1.94%
Structure (SMILES): CC(=O)c1cccc(S(=O)(=O)NCc2ccccc2-n2cccn2)c1 [GPZ614741]
- cardiotoxicity (hERG predictor assay) [2]: no toxicity
- Cardiotoxicity % (100 = no toxicity) ([2]; 100 = no toxicity): 101.76 ± 2.48%
- increase of blood pressure induced by the combination of L-NAME and high salt (HSD) [3]: prevented the increase
- interstitial fibrosis associated to CKD (sirius red staining) [5]: strong antifibrotic effect
